These results are taken from ChEMBL document CHEMBL5291721, “A preclinical secondary pharmacology resource illuminates target-adverse drug reaction associations of marketed drugs” (Nat Commun, 2023).

The target in assay [1] is T1, Alpha-1A adrenergic receptor (Homo sapiens, UniProt P35348).
T1 sequence (P35348 whole entry): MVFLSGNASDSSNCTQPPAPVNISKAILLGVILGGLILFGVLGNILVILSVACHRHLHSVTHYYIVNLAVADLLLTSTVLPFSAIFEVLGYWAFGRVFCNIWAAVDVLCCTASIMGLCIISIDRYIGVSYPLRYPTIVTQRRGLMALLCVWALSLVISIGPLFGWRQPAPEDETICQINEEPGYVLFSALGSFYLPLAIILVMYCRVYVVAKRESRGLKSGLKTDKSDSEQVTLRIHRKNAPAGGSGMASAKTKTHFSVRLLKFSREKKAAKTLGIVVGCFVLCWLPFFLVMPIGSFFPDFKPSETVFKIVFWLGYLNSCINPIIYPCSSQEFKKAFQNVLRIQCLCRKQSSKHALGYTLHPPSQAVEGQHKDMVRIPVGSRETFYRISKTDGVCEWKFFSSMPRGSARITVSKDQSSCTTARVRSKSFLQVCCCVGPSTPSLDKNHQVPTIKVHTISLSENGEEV
In kind it is functional, cell-based.

Assay [2] concerns the target Beta-2 adrenergic receptor (Homo sapiens, UniProt P07550). It counts as functional, cell-based.
Assay [3] deals with T2, Gastrin/cholecystokinin type B receptor (Homo sapiens, UniProt P32239).
T2 sequence (P32239 whole entry): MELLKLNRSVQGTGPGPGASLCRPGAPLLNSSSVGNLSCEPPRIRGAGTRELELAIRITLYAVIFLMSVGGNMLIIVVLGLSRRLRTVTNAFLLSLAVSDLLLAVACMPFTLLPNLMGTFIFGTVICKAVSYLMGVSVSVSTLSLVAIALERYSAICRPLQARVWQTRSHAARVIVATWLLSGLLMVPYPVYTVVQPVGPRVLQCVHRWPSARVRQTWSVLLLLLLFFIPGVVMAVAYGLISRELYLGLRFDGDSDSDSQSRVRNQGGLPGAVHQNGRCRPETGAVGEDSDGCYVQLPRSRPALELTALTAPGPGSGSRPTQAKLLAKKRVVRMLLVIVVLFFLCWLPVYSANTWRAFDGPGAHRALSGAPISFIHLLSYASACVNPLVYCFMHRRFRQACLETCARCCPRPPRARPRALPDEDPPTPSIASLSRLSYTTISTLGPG

Assay [4] deals with T3, Muscarinic acetylcholine receptor M1 (Homo sapiens, UniProt P11229).
T3 sequence (P11229 whole entry): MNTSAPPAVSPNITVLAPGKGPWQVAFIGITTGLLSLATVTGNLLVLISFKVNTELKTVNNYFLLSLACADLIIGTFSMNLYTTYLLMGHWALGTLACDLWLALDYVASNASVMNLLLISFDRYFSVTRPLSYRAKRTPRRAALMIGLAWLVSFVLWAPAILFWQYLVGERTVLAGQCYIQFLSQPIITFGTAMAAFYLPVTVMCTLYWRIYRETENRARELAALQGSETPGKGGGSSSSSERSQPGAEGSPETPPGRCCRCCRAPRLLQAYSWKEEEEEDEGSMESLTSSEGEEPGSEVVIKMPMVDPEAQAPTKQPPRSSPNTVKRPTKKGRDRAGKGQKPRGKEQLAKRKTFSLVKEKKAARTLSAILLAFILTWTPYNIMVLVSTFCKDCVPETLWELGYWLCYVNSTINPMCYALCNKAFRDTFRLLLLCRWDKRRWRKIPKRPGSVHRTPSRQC
In kind it is functional.

Assay [5] deals with Muscarinic acetylcholine receptor M3 (Homo sapiens, UniProt P20309).
Sequence of Muscarinic acetylcholine receptor M3 (P20309 whole entry): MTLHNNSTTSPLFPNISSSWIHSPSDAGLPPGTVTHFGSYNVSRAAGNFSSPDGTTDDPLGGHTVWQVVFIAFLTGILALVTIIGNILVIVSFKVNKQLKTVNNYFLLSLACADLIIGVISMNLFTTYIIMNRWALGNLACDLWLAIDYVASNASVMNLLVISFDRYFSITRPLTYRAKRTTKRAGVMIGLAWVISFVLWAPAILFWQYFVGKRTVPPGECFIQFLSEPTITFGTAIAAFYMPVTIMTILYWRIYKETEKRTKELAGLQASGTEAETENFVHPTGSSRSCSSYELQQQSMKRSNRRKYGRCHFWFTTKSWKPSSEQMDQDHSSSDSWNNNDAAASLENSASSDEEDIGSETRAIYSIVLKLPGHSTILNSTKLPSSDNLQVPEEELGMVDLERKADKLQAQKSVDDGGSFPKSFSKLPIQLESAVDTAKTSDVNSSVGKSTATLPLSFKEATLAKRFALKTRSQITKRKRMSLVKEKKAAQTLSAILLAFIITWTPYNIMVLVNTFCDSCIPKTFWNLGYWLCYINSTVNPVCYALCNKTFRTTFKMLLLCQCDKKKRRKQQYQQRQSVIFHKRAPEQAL
In assay [6] the target is Cannabinoid receptor 1 (Homo sapiens, UniProt P21554). In kind it is functional, cell-based.
Sequence of Cannabinoid receptor 1 (P21554 whole entry): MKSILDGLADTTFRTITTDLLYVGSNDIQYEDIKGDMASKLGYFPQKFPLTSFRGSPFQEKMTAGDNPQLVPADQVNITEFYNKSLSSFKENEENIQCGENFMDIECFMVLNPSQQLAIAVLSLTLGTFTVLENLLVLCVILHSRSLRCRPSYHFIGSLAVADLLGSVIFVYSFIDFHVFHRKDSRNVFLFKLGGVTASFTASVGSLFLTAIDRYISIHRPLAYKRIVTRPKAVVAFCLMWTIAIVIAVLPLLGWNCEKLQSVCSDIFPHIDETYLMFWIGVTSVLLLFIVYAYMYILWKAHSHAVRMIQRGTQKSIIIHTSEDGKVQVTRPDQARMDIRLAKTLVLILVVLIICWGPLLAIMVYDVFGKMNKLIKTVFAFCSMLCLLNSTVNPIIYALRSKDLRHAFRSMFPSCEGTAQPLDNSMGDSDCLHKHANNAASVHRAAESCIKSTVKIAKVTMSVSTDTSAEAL
In assay [7] the target is T4, 5-hydroxytryptamine receptor 2B (Homo sapiens, UniProt P41595). In kind it is functional, cell-based.
T4 sequence (P41595 whole entry): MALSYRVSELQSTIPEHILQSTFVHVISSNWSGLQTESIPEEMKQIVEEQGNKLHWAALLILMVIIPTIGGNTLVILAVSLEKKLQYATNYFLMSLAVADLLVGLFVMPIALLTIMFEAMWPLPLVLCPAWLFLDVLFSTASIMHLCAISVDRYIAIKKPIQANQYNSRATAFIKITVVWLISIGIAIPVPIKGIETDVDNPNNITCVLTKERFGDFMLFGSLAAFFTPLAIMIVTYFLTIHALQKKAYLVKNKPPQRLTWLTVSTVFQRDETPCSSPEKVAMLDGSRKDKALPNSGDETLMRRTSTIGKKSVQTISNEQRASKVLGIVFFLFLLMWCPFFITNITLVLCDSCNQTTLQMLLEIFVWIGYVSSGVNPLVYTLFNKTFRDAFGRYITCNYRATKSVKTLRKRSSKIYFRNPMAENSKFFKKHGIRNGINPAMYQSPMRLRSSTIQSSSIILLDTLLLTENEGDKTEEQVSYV
Assay [8] deals with T4, 5-hydroxytryptamine receptor 2B. In kind it is functional, cell-based. This is another data set of the same source.
Assay [9] concerns the target Kappa-type opioid receptor (Homo sapiens, UniProt P41145).
In assay [10] the target is Acetylcholinesterase (Homo sapiens, UniProt P22303). In kind it is functional.
Sequence of Acetylcholinesterase (P22303 whole entry): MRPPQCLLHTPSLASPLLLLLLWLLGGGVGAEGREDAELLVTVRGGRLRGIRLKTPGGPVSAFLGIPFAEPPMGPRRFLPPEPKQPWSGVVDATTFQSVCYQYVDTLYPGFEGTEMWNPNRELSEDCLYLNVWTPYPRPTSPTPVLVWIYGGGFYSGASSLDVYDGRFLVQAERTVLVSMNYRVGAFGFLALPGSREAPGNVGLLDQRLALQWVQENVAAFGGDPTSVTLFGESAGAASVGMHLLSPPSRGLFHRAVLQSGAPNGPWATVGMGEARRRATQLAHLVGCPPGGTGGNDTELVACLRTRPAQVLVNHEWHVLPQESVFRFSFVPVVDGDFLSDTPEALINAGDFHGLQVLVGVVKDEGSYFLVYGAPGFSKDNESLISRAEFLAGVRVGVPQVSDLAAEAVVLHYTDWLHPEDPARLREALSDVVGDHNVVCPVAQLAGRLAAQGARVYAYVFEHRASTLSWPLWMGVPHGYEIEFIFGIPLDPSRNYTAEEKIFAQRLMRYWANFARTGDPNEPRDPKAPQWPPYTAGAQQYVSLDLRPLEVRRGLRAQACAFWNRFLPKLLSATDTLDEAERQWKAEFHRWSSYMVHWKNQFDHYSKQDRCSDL
Assay [11] addresses T5, Adenosine receptor A3 (Homo sapiens, UniProt P0DMS8).
T5 sequence (P0DMS8 whole entry): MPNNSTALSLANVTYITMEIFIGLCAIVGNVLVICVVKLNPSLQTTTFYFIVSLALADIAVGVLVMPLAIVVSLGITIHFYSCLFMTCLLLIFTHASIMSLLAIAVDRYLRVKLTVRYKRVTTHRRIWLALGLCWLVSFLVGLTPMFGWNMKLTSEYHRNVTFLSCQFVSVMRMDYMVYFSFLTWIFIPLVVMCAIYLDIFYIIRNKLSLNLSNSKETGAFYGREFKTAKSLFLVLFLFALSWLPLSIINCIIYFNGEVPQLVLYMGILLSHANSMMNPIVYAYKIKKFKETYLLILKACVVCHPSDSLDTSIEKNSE

The target in assay [12] is Prothrombin (Homo sapiens, UniProt P00734). In kind it is functional.
Assay [13] addresses Histamine H3 receptor (Homo sapiens, UniProt Q9Y5N1).
Assay [14] deals with Vascular endothelial growth factor receptor 2 (Homo sapiens, UniProt P35968). It counts as functional.
Sequence of Vascular endothelial growth factor receptor 2 (P35968 whole entry): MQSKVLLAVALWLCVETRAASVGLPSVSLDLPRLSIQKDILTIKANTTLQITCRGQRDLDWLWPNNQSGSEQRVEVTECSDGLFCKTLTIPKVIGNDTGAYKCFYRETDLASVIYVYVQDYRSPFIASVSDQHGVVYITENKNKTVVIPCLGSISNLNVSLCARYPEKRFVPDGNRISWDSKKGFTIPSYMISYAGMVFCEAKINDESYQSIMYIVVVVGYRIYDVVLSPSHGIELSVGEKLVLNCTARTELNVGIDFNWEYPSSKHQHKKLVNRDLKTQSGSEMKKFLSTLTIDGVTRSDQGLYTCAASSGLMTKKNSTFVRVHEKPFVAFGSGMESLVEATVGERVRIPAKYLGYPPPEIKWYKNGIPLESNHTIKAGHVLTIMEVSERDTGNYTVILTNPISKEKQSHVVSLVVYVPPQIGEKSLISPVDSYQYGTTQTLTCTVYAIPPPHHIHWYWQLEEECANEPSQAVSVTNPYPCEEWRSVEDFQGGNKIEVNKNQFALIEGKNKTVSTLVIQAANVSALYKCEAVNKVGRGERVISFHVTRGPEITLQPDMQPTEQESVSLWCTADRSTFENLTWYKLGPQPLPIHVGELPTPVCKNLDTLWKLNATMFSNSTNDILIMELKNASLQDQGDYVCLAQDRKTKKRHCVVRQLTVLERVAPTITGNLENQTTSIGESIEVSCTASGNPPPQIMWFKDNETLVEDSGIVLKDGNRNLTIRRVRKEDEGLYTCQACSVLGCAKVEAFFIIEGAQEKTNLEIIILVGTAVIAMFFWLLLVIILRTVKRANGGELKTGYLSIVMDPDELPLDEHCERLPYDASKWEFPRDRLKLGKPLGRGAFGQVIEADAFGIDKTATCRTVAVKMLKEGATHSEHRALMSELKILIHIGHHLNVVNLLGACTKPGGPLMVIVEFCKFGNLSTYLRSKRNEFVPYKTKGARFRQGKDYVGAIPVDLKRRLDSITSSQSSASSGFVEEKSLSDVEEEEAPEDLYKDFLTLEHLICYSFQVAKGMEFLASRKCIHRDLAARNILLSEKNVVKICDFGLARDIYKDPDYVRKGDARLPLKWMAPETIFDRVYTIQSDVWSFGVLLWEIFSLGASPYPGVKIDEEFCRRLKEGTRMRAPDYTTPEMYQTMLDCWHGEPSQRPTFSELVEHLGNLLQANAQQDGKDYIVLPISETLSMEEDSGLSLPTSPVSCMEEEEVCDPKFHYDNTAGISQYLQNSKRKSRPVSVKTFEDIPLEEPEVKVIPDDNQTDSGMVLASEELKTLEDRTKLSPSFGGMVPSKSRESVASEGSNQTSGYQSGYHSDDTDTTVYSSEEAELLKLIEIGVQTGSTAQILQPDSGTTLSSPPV

As usually defined, the AC50 is the concentration at which the activity in the assay is half-maximal.
Note: assay procedure not described here.

Sequence of Histamine H3 receptor (Q9Y5N1 whole entry): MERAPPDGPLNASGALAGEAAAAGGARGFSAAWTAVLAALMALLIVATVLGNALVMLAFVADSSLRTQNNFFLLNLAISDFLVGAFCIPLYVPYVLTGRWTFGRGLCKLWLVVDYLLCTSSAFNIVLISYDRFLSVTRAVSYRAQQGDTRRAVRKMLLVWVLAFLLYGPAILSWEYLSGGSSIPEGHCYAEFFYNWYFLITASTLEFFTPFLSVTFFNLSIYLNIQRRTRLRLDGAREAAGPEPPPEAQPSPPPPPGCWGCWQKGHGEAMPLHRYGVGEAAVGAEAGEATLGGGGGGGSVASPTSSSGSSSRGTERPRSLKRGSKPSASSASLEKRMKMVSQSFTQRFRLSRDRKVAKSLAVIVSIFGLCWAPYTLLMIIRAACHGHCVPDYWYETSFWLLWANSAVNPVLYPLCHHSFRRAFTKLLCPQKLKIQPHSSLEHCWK
Sequence of Beta-2 adrenergic receptor (P07550 whole entry): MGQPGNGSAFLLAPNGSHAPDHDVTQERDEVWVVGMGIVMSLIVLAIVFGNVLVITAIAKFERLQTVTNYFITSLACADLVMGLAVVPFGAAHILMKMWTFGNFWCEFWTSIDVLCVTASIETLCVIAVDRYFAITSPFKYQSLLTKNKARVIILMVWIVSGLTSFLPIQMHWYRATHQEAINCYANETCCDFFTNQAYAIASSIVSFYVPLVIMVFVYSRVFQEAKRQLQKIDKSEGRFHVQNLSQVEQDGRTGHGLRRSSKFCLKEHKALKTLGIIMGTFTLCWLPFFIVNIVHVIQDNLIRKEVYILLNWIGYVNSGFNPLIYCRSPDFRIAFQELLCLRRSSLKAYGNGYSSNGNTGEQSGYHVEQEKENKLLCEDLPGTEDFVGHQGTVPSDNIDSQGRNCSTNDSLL
Sequence of Kappa-type opioid receptor (P41145 whole entry): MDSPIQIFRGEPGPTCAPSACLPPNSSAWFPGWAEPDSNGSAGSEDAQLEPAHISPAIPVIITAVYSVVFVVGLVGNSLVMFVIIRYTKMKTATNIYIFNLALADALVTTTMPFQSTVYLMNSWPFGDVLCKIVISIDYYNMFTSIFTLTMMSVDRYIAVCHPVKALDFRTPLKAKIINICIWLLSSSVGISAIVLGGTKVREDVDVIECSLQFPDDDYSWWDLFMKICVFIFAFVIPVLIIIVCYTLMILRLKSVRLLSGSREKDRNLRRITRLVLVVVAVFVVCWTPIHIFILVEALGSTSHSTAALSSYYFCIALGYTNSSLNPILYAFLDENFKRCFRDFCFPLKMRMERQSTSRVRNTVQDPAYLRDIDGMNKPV

In the case of `CN1CCC(=C2c3ccccc3CCc3cccnc32)CC1` [AZATADINE], the AC50 was over 30 µM in assay [1]; over 30 µM in assay [2]; over 30 µM in [3]; 0.11 µM in [4]; over 30 µM in [5]; over 30 µM in [6]. Moreover, the AC50 in assay [7] is over 10 µM; in assay [8], 1.6 µM; in assay [9] it was 9.38 µM.

In the case of `CCCCC(=O)O[C@]1(C(=O)CO)[C@@H](C)C[C@H]2[C@@H]3CCC4=CC(=O)C=C[C@]4(C)[C@@]3(F)[C@@H](O)C[C@@]21C` [BETAMETHASONE VALERATE], the AC50 in assay [1] is over 30 µM; in assay [2], over 30 µM; in [3], over 30 µM; in assay [4] it was over 10 µM; in assay [5], over 30 µM; in assay [6] it was over 30 µM. Moreover, the AC50 in [7], in assay [8] and in assay [9] was over 10 µM throughout.

Consider `CNC1=Nc2ccc(Cl)cc2C(c2ccccc2)=[N+]([O-])C1` [CHLORDIAZEPOXIDE], for which the AC50 in assay [1] is over 30 µM; in assay [2] it was over 30 µM; in assay [3], over 30 µM; in assay [7] it was over 10 µM; in assay [8], over 10 µM.

For the compound `CC(=O)O[C@]1(C(C)=O)CC[C@H]2[C@@H]3C=C(Cl)C4=CC(=O)CC[C@]4(C)[C@H]3CC[C@@]21C` [CHLORMADINONE ACETATE], the AC50 in assay [10] is over 30 µM; in assay [11], 21 µM; in [12], over 30 µM; in assay [13], over 30 µM; in assay [14] it was over 30 µM.

Turning to `NC(=O)OCC(O)COc1ccc(Cl)cc1` (stereo not drawn) [CHLORPHENESIN CARBAMATE], the AC50 in assay [10], in assay [11], in [12], in [13] and in assay [14] was over 30 µM throughout.

Regarding `Cc1ccccc1N1CCN(CCc2nnc3n2CCCC3)CC1` [DAPIPRAZOLE], the AC50 in [10], in [11], in assay [12], in [13] and in assay [14] was over 30 µM each time.

As for `CCC(=O)O[C@]1(C(=O)CCl)[C@@H](C)C[C@H]2[C@@H]3C[C@H](F)C4=CC(=O)C=C[C@]4(C)[C@@]3(F)[C@@H](O)C[C@@]21C` [HALOBETASOL PROPIONATE], the AC50 is over 30 µM in assay [10]; 19.7 µM in assay [11]; over 30 µM in assay [12]; over 30 µM in [13]; over 30 µM in assay [14].

Take `CC(N)Cc1ccc(O)cc1` (stereo not drawn) [HYDROXYAMPHETAMINE]: the AC50 in assay [10], in assay [11], in [12], in [13] and in [14] was over 30 µM each time.

With `Cc1cc(NC(=O)C2=C(O)c3ccccc3S(=O)(=O)N2C)no1` [ISOXICAM], the AC50 in assay [10] is over 30 µM; in [11] it was over 30 µM; in assay [12] it was over 30 µM; in [13], over 30 µM; in assay [14] it was 24.4 µM.

On to `COc1cc2c(cc1OC)CC(=O)N(CCCN(C)C[C@H]1Cc3cc(OC)c(OC)cc31)CC2` [IVABRADINE], for which the AC50 in assay [10], in assay [11], in assay [12], in assay [13] and in assay [14] was over 30 µM each time.

As to `CC(C)(C)NC[C@H](O)COc1cccc2c1CCCC2=O` [LEVOBUNOLOL], the half-maximal activity concentration (AC50) in assay [10], in [11], in assay [12], in [13] and in assay [14] was over 30 µM throughout.

For the compound `Cc1c(N(C)CS(=O)(=O)O)c(=O)n(-c2ccccc2)n1C` [METAMIZOLE], the AC50 in assay [10], in [11], in assay [12], in [13] and in [14] was over 30 µM in each case.

Regarding `CN1C(=O)/C(=N\NC(N)=S)c2ccccc21` [METHISAZONE], the AC50 in assay [10] is over 30 µM; in [11] it was 13.9 µM; in assay [12], over 30 µM; in assay [13], over 30 µM; in [14] it was over 10 µM.

Consider `COC(=O)c1ccc(O)cc1` [METHYLPARABEN], for which the AC50 in assay [10], in assay [11], in [12], in assay [13] and in [14] was over 30 µM each time.

`CCCc1nc(C(C)(C)O)c(C(=O)O)n1Cc1ccc(-c2ccccc2-c2nnn[nH]2)cc1` [OLMESARTAN]: the AC50 in [10], in assay [11], in [12], in assay [13] and in [14] was over 30 µM in each case.

In the case of `NCC(CC(=O)O)c1ccccc1` (stereo not drawn) [PHENIBUT], the AC50 in assay [10], in [11], in [12], in [13] and in [14] was over 30 µM each time.

Take `Cc1ncc(COP(=O)(O)O)c(C=O)c1O` [PYRIDOXAL PHOSPHATE ANHYDROUS]: the AC50 in [10], in assay [11], in assay [12], in assay [13] and in assay [14] was over 30 µM each time.

For the compound `COc1ccc(CN(CCN(C)C)c2ccccn2)cc1` [PYRILAMINE], the AC50 in assay [10], in assay [11], in assay [12], in assay [13] and in assay [14] was over 30 µM each time.

In the case of `c1ccc2c(c1)CCc1ccccc1N2C1CN2CCC1CC2` (stereo not drawn) [QUINUPRAMINE], the AC50 in [10], in assay [11], in [12], in assay [13] and in assay [14] was over 30 µM throughout.

For `C[C@H](Cc1cc2c(c(C(N)=O)c1)N(CCCO)CC2)NCCOc1ccccc1OCC(F)(F)F` [SILODOSIN], the AC50 in [10], in assay [11], in assay [12], in assay [13] and in assay [14] was over 30 µM throughout.

Turning to `CC1=CCC(C(C)(C)O)CC1O` (stereo not drawn) [SOBREROL], the AC50 in assay [10], in assay [11], in assay [12], in assay [13] and in assay [14] was over 30 µM in each case.

`CCOC(=O)N1CSC[C@H]1C(=O)O` [TELMESTEINE]: the AC50 in assay [10], in assay [11], in assay [12], in [13] and in assay [14] was over 30 µM each time.
